One data set has as its target KRAS G12C-GDP (Homo sapiens (Human), UniProt P01116, G12C). The data set is described as follows: KRAS G12C-GDP exchange test (SOS/cRAF/GTP, HTRF). The format is biochemical. The following applies: 1 h premix with compound, 2 h reaction with SOS, cRAF, GTP. As for the experimental part:
2. A mixture of SOS (Pharmaron, ZZY-20190823), cRAF (Pharmaron, ZZY-20190823), GTP (Sigma, A6885-100MG), MAb Anti 6HIS-d2/MAb Anti GST-Eu (Cisbio, 61HISDLB/61GSTKLB) was added for a catalyzed reaction for 2 h.
3. The fluorescence signals of the emitted light at 615 nm and 665 nm under 320 nm excitation light were read by Biotek Microplate Reader (Synergy4).
4. The IC50 (median inhibitory concentration) of the compound was obtained by the following non-linear fitting formula: Y=Bottom+(Top−Bottom)/(1+10^((Log IC50−X)*Hill Slope)), and the data were analyzed by Graphpad 6-0 software.
(In general: In TR-FRET formats the signal depends on donor and acceptor labels being close together.)

Data set [1] is described as follows: Pharmacokinetic experiment in SD rats. The format is in vivo. The following applies: male, Sprague-Dawley, rat, plasma, po, 10 mg/kg; read-out: Oral bioavailability, F %. As for the experimental part:
Pharmacokinetic Experiment in SD Rats:
1. SPF male rats were randomly divided into groups. The compounds to be tested were separately administered by intravenous injection and oral gavage, with 3 animals for each compound to be tested in each mode of administration. The administration solvent was 5% DMSO+10% Solutol+85% normal saline or 85% PBS, and the substances to be tested were dissolved in the solvent to obtain clear solutions. Administration concentration and volume: 1) a single intravenous injection of 0.6 mg/mL of the compound to be tested, with an administration volume of 5 mL/kg and an administration dosage of 3 mg/kg; and 2) a single oral gavage of 1 mg/mL of the compound to be tested, with an administration volume of 10 mL/kg and an administration dosage of 10 mg/kg. The rats were fasted overnight (10-14 h) before administration and fed 4 h after administration.
2. Blood was collected via the jugular vein or by other appropriate methods at 200 μL per time point and anticoagulated with K2-EDTA, and after collection, the blood was placed on ice and centrifuged for plasma within 1 h (centrifugation conditions: 6800 g, 6 min 2-8° C.). The points for blood sampling from the animals in the intravenous injection group were respectively: before administration, and 5 min, 15 min, 30 min, 1 h, 2 h, 4 h, 8 h, and 24 h after administration; and the points for blood sampling from the animals in the oral administration group were respectively: before administration, and 15 min, 30 min, 1 h, 2 h, 4 h, 6 h, 8 h, and 24 h after administration.
3. The blood concentration was detected, and the pharmacokinetic parameter AUC(0-t) was calculated by Phoenix WinNonlin based on the blood concentration data at various time points. When the pharmacokinetic parameters were calculated, the BLQ before Cmax (including ‘No peak’) was calculated as 0: and BLQ after Cmax (including ‘No peak’) was not involved in the calculation.

The test system of the next data set is H358 cells. In words: Cell activity experiment: activity test of H358 cells (MTT, 5 days). Conditions: 5 days incubation, absorbance 492 nm. The format is cell-based. In outline:
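Viability was read by MTT: 4 h dye incubation, DMSO solubilisation, absorbance at 492 nm. This followed 5 days' treatment (37° C., 5% CO2) of H358 cells, pre-grown 24 h, with eight-point 3-fold dilutions up to 10000 nM final, 0.5% DMSO final, triplicate wells.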

Chain of KRAS G12C-GDP (P01116-2 other isoform, or with tags, fused parts or gaps G12C): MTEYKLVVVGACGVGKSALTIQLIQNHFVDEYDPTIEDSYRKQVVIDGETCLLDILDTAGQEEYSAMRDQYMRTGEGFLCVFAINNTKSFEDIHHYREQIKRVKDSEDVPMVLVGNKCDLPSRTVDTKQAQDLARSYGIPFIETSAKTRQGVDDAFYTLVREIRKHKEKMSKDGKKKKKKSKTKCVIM

In the case of `C=C(F)C(=O)N1CCN(c2nc(OC[C@@]34CCCN3C[C@H](F)C4)nc3c(F)c(-c4cccc5c4CC4CC54)ncc23)C[C@@H]1CC#N` (single isomer, unassigned) [Example 879], the figures for the IC50 at KRAS G12C-GDP and in the data set with H358 cells were 0.59 nM and 4 nM, respectively. Also, the bioavailability in data set [1] stood at 16.9%.

Consider `C=C(F)C(=O)N1CCN(c2nc(OC[C@@]34CCCN3C[C@H](F)C4)nc3c(F)c(-c4cccc5c4CC4CC54)ccc23)C[C@@H]1CC#N` (single isomer, unassigned) [Example 887], for which the half-maximal inhibitory concentration (IC50) turned out to be 1.02 nM at KRAS G12C-GDP and 2.65 nM with H358 cells. In data set [1], the bioavailability came to 25.9%.

For `C=CC(=O)N1CCN(c2nc(OC[C@@H]3CCCN3C)nc3c(F)c(-c4cccc5cccc(Cl)c45)ccc23)C[C@@H]1CC#N` [Example 358, 2-((S)-1-acryloyl-4-(7-(8-chloronaphthalen-1-yl)-8-fluoro-2-(((S)-1-methylpyrrolidin-2-yl)methoxy)quinazolin-4-yl)piperazin-2-yl)acetonitrile], the concentration for half-maximal inhibition (IC50) on KRAS G12C-GDP is 2.4 nM; in the data set on H358 cells (Homo sapiens, NCI-H358, 120 h), 3.4 nM. The bioavailability in data set [1] amounted to 2.35%.

As for `C=CC(=O)N1CCN(c2nc(OC[C@@]34CCCN3C[C@H](F)C4)nc3c(F)c(-c4cccc5cccc(Cl)c45)ccc23)C[C@@H]1CC#N` [Example 367, 2-((2S)-1-acryloyl-4-(7-(8-chloronaphthalen-1-yl)-8-fluoro-2-((((2R,7aS)-2-fluorotetrahydro-1H-pyrrolizin-7a(5H))-yl)methoxy)quinazolin-4-yl)piperazin-2-yl)acetonitrile], the bioavailability in data set [1] turned out to be 11.6%. For the same molecule, half-maximal inhibition in the data set on H358 cells (Homo sapiens, NCI-H358, 120 h) (IC50) required 1.5 nM.

`C=C(F)C(=O)N1CCN(c2nc(OC[C@@H]3CCCN3C)nc3c(F)c(-c4cccc5cccc(Cl)c45)ccc23)C[C@@H]1CC#N` [Example 903]: the IC50 on KRAS G12C-GDP is 0.89 nM; in the data set on H358 cells (Homo sapiens, NCI-H358, 120 h), 0.7 nM. The bioavailability in data set [1] is 28.6%.

For the molecule `C=C(F)C(=O)N1CCN(c2nc(OC[C@@]34CCCN3C[C@H](F)C4)nc3c(F)c(-c4cccc5cccc(Cl)c45)ccc23)C[C@@H]1CC#N` [Example 904, 2-((S)-4-(7-(8-chloronaphthalen-1-yl)-8-fluoro-2-((2R,7aS)-2-fluorotetrahydro-1H-pyrrolizin-7a(5H)-methoxy)quinazolin-4-yl)-1-(2-fluoroacryloyl)piperazin-2-yl)acetonitrile], the half-inhibitory concentration (IC50) on KRAS G12C-GDP is 0.93 nM; in the data set on H358 cells (Homo sapiens, NCI-H358, 120 h), 0.4 nM. The bioavailability in data set [1] stood at 30.3%.

Consider `C=C(F)C(=O)N1CCN(c2nc(OC[C@@]34CCCN3C[C@H](F)C4)nc3c(F)c(-c4cccc5ccc(F)c(Cl)c45)ccc23)C[C@@H]1CC#N` [Example 914, 2-((S)-4-(7-(8-chloro-7-fluoronaphthalen-1-yl)-8-fluoro-2-((2R,7aS)-2-fluorotetrahydro-1H-pyrrolizin-7a(5H)-ylmethoxy)quinazolin-4-yl)-1-(2-fluoroacryloyl)piperazin-2-yl)acetonitrile], for which, in data set [1], the bioavailability came to 28.5%. Further, the IC50 in the data set with H358 cells (Homo sapiens, NCI-H358, 120 h) amounted to 0.4 nM.

The IC50 is the midpoint of a concentration-inhibition curve. As a reminder, the bioavailability is the share of a dose that reaches the circulation, judged against a reference dose that is usually intravenous.

The values are drawn from US20240109893A1, “PREPARATION AND APPLICATION METHOD OF HETEROCYCLIC COMPOUNDS AS KRAS INHIBITOR” (SHANGHAI KECHOW PHARMA, INC., priority 2020, published 2024).
